Target: T1, bovine carbonic anhydrase-II enzyme (Bos taurus, UniProt P00921)
T1 construct: In vitro experiment of bovine erythrocyte CA-II was conducted in HEPES-Tris buffer; from tissue; host or cells: bovine erythrocytes
Experiment: In vitro carbonic anhydrase-II inhibition assay (p-nitrophenylacetate substrate)
Format: biochemical
Conditions: bovine erythrocyte CA-II, HEPES-Tris buffer pH 7.4, 25°C, substrate p-nitrophenylacetate 0.7 mM, triplicate
Method: In vitro experiment of bovine erythrocyte CA-II was conducted in HEPES-Tris buffer (20 mM) to maintain the pH 7.4. The purified was dissolved in HEPES-Tris buffer (0.1 mg/ml), and the reaction mixture was comprised of 140 μL of the HEPES-Tris buffer, 20 μL of the enzyme, and 20 μL of test compound (prepared in DMSO) and was incubated for 15 min at 25°C. After completion of the preincubation, the reaction was started by adding instantly the substrate p-nitrophenylacetate (P-NPA) at a concentration of 0.7 mM and prepared in methanol. To initiate the reaction, the 96-well plate was placed in a microplate reader and continuous product formation was monitored with a one-minute time interval for 30 min at 400 nm. The assay temperature was strictly controlled and kept at 25°C. All the reaction was conducted in triplicate, and the results are presented as mean.

T1 sequence (P00921 whole entry): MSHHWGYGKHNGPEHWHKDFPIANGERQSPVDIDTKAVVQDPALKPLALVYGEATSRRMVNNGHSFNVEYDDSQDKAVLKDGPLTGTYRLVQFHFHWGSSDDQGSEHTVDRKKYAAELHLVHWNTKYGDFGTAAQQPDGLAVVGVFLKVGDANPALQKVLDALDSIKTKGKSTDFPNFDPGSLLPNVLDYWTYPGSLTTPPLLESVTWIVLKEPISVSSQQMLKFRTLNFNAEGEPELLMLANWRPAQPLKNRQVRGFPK

COc1cc(Br)ccc1O[C@H](C)Cn1cc(-c2ccc(N)cc2)nn1 [Compound 7b, (R)-4-(1-(2-(4-Bromo-2-methoxyphenoxy)propyl)-1H-1,2,3-triazol-4-yl)aniline]
IC50: 13.8 ± 0.63 µM

— publication PMC8278147, “Synthesis of New 1H-1,2,3-Triazole Analogs in Aqueous Medium via “Click” Chemistry: A Novel Class of Potential Carbonic Anhydrase-II Inhibitors” (Frontiers in Chemistry, 2021)
